ChEMBL document CHEMBL3769405, “Discovery of Potent and Selective Inhibitors of Phosphodiesterase 1 for the Treatment of Cognitive Impairment Associated with Neurodegenerative and Neuropsychiatric Diseases” (J Med Chem, 2016)
Values after ≈ are worked out from the molar mass of the structure shown.

Key:
[1] = Selectivity ratio of Ki for recombinant full lenght human PDE4A to bovine brain PDE1
[2] = AUClast in C57BL/6 mouse plasma at 10 mg/kg administered through oral gavage; format: ADME, organism-based; design: dose 10 mg/kg, time 0 - last, route oral
[3] = biological target: 3',5'-cyclic-AMP phosphodiesterase 4A (Homo sapiens, UniProt P27815); assay: Inhibition of recombinant full lenght human PDE4A using fluorescent labeled cAMP as substrate after 15 mins by IMAP assay
Sequence of 3',5'-cyclic-AMP phosphodiesterase 4A (P27815 whole entry): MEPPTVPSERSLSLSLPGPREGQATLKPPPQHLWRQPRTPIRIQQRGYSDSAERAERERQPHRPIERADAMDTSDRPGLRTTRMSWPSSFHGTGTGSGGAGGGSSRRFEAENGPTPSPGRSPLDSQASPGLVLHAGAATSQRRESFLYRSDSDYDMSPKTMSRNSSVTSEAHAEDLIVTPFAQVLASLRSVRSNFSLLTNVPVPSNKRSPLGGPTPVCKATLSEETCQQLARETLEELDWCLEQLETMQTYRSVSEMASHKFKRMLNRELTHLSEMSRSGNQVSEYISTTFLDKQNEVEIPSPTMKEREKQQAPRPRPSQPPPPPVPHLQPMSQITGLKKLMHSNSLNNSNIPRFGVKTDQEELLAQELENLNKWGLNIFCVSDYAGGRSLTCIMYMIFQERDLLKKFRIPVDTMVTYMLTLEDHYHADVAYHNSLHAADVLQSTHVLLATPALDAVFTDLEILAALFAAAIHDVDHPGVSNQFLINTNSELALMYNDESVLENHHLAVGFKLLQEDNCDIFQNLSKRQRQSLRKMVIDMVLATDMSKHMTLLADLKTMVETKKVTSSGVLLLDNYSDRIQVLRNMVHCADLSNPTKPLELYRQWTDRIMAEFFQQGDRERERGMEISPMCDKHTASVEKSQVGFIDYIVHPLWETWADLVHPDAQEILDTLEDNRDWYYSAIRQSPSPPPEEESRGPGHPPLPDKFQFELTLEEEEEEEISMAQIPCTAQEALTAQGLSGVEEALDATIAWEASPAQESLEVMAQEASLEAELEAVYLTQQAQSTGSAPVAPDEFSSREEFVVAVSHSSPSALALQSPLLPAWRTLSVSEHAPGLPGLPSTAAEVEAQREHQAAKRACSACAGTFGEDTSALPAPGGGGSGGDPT

[4] = Solubility of compound in PBS; format: physicochemical
[5] = Lipophilicity, logD of compound at pH 7.4; format: physicochemical; details: buffer
[6] = Inhibition of bovine brain PDE1 using fluorescent labeled cGMP as substrate after 15 mins by IMAP assay; design: species or system Bos taurus
[7] = AUClast in C57BL/6 mouse brain at 10 mg/kg administered through oral gavage; format: ADME, organism-based; design: dose 10 mg/kg, time 0 - last, route oral
[8] = Intrinsic clearance in human liver microsomes; format: ADME; details: read-out: CLH
[9] = in vivo; details: C57BL/6, mouse, brain/plasma
[10] = Cmax in C57BL/6 mouse plasma at 10 mg/kg administered through oral gavage; format: ADME, organism-based; design: dose 10 mg/kg, route oral
[11] = Lipophilicity, logD of compound at pH 1.7; format: physicochemical; details: buffer
[12] = Cmax in C57BL/6 mouse brain at 10 mg/kg administered through oral gavage; format: ADME, organism-based; design: dose 10 mg/kg, route oral

| Ratio Ki [1] | Ki [3] [nM] | Ki [6] [nM] | SMILES | other results |
| --- | --- | --- | --- | --- |
| 33 | 220 | 6.6 | CN1C(=O)c2c(nn(Cc3ccc(-c4cccc(F)n4)cc3)c2Oc2ccc(F)cc2)N2C1=N[C@@H]1CCC[C@@H]12 | AUC(0-t) [2]: 119 ng·h/mL; solubility [4]: 7 µM (≈ 3.69 µg/mL); logD [5]: 4.77; AUC(0-t) [7]: 102 ng·h/mL; CLint scaled [8]: 266 mL/min/kg; Kp [9]: 0.9; Cmax [10]: 88 ng/mL; logD [11]: 1.21; Cmax [12]: 64 ng/mL |
| – | – | 5.4 | CN1C(=O)c2c(nn(Cc3ccc(-c4cccc(F)n4)cc3)c2Nc2ccccc2)N2C1=N[C@H]1CCC[C@H]12 | CLint scaled [8]: 51 mL/min/kg |
| 2060 | 9900 | 4.8 | CN1C(=O)c2c(nn(Cc3ccc(-c4ccccc4)cc3)c2Nc2ccccc2)N2CC(C)(C)CN=C12 | – |
| 1030 | 3400 | 3.3 | C[C@@H]1CN2C(=N1)N(C)C(=O)c1c2nn(Cc2ccc(-c3ccccc3)cc2)c1Nc1ccccc1 | – |
| 3750 | 30000 | 8 | C[C@H]1CN=C2N(C)C(=O)c3c(nn(Cc4ccc(-c5ccccc5)cc4)c3Nc3ccccc3)N21 | – |
| 683 | 4100 | 6 | CN1C(=O)c2c(nn(Cc3ccc(-c4ccccc4)cc3)c2Nc2ccccc2)N2C[C@@H](CO)N=C12 | – |
| 1520 | 44000 | 29 | CN1C(=O)c2c(nn(Cc3ccc(-c4ccccc4)cc3)c2Nc2ccccc2)N2CCN=C12 | – |
| 5320 | 330 | 0.062 | CN1C(=O)c2c(nn(Cc3ccc(-c4cc(F)ccn4)cc3)c2Nc2ccccc2)N2C1=N[C@@H]1CCC[C@@H]12 | CLint scaled [8]: 218 mL/min/kg |
| 414 | 2400 | 5.8 | CN1C(=O)c2c(nn(Cc3ccc(-c4cccc(F)n4)cc3)c2N)N2C1=N[C@@H]1CCC[C@@H]12 | – |
| 2 | 550 | 290 | O=C1NC2=N[C@@H]3CCC[C@@H]3N2c2nn(Cc3ccc(C(F)(F)F)cc3)c(Nc3ccccc3)c21 | CLint scaled [8]: 22 mL/min/kg |
| 179 | 930 | 5.2 | CN1C(=O)c2c(nn(Cc3ccc(-c4cccc(F)n4)cc3)c2Sc2ccccc2)N2C1=N[C@@H]1CCC[C@@H]12 | AUC(0-t) [2]: 108 ng·h/mL; solubility [4]: < 1 µM; logD [5]: > 5; AUC(0-t) [7]: 81 ng·h/mL; CLint scaled [8]: 208 mL/min/kg; Kp [9]: 0.8; Cmax [10]: 93 ng/mL; logD [11]: 2.49; Cmax [12]: 71 ng/mL |
| 33 | 13000 | 390 | CN1C(=O)c2c(nn(Cc3ccc(-c4ccccc4)cc3)c2Nc2ccccc2)N2C[C@@H](Cc3ccccc3)N=C12 | – |
| 154 | 4300 | 28 | CNc1c2c(nn1Cc1ccc(-c3cccc(F)n3)cc1)N1C(=N[C@@H]3CCC[C@@H]31)N(C)C2=O | – |
| – | 8400 | 5.3 | CN1C(=O)c2c(nn(Cc3ccc(-c4ccccn4)cc3)c2Nc2ccccc2)N2C1=N[C@H]1CCC[C@H]12 | CLint scaled [8]: 72 mL/min/kg |
| 857 | 12000 | 14 | CN1C(=O)c2c(nn(Cc3ccc(-c4ccccc4)cc3)c2Nc2ccccc2)N2CC(C3CCOC3)N=C12 (centres undefined) | – |
| – | – | 0.15 | CN1C(=O)c2c(nn(Cc3ccc(-c4cccc(F)n4)cc3)c2Nc2ccccc2)N2C1=N[C@@H]1CCC[C@@H]12 [LENRISPODUN] | – |
| > 1500 | > 100000 | 65 | CN1C(=O)c2c(nn(Cc3ccc(-c4ccccc4)cc3)c2Nc2ccccc2)N2CCCN=C12 | – |
| 841 | 37000 | 44 | CN1Cc2c(nn(Cc3ccc(C(F)(F)F)cc3)c2Nc2ccccc2)N2C1=N[C@@H]1CCC[C@@H]12 | CLint scaled [8]: 64 mL/min/kg |
| > 400 | > 100000 | 250 | CN1C(=O)c2c(nn(Cc3ccc(-c4ccccc4)cc3)c2Nc2ccccc2)N2C[C@@H](COCc3ccccc3)N=C12 | – |
| 1120 | 460 | 0.41 | CN1C(=O)c2c(nn(Cc3ccc(-c4ccc(F)cc4)cc3)c2Nc2ccccc2)N2C1=N[C@@H]1CCC[C@@H]12 | – |
| 6760 | 500 | 0.074 | CN1C(=O)c2c(nn(Cc3ccc(-c4ccc(F)cn4)cc3)c2Nc2ccccc2)N2C1=N[C@@H]1CCC[C@@H]12 | CLint scaled [8]: 125 mL/min/kg |
| 571 | 1600 | 2.8 | CN1C(=O)c2c(nn(Cc3ccc(-c4cccc(F)n4)cc3)c2NC2CCCCC2)N2C1=N[C@@H]1CCC[C@@H]12 | – |

| Ratio Ki [1] | Ki [3] [nM] | Ki [6] [nM] | SMILES | other results |
| --- | --- | --- | --- | --- |
| 816 | 4000 | 4.9 | CN1C(=O)c2c(nn(Cc3ccc(-c4cccc(F)n4)cc3)c2NCc2ccccc2)N2C1=N[C@@H]1CCC[C@@H]12 | – |
| 7 | – | 1400 | CN1C(=O)c2c(Nc3ccccc3)n[nH]c2N2C1=N[C@@H]1CCC[C@@H]12 | – |
| 339 | 780 | 2.3 | CN1C(=O)c2c(nn(Cc3ccc(-c4cccc(F)n4)cc3)c2Cc2ccc(F)cc2)N2C1=N[C@@H]1CCC[C@@H]12 | AUC(0-t) [2]: 69 ng·h/mL; solubility [4]: < 1 µM; logD [5]: > 5; AUC(0-t) [7]: 109 ng·h/mL; CLint scaled [8]: 81 mL/min/kg; Kp [9]: 1.6; Cmax [10]: 44 ng/mL; logD [11]: 1.42; Cmax [12]: 81 ng/mL |
| 2740 | 200 | 0.073 | CN1C(=O)c2c(nn(Cc3ccc(-c4ncccc4F)cc3)c2Nc2ccccc2)N2C1=N[C@@H]1CCC[C@@H]12 | CLint scaled [8]: 276 mL/min/kg |
| 12 | 370 | 31 | CN1C(=O)c2c(nn(Cc3ccc(-c4cccc(F)n4)cc3)c2Nc2ccncc2)N2C1=N[C@@H]1CCC[C@@H]12 | – |
| 2000 | 2600 | 1.3 | CCCC(C)Nc1c2c(nn1Cc1ccc(-c3cccc(F)n3)cc1)N1C(=N[C@@H]3CCC[C@@H]31)N(C)C2=O (some centres undefined) | – |
| 83 | 250 | 3 | CN1C(=O)c2c(nn(Cc3ccc(-c4cccc(F)n4)cc3)c2Oc2ccccc2)N2C1=N[C@@H]1CCC[C@@H]12 | AUC(0-t) [2]: 210 ng·h/mL; solubility [4]: 8 µM (≈ 4.07 µg/mL); logD [5]: 4.61; AUC(0-t) [7]: 192 ng·h/mL; CLint scaled [8]: 214 mL/min/kg; Kp [9]: 0.9; Cmax [10]: 165 ng/mL; logD [11]: 1.05; Cmax [12]: 170 ng/mL |
| 413 | 6200 | 15 | CCCNc1c2c(nn1Cc1ccc(-c3cccc(F)n3)cc1)N1C(=N[C@@H]3CCC[C@@H]31)N(C)C2=O | – |
| 29 | 4600 | 160 | CN1C(=O)c2c(nn(Cc3ccc(-c4cccc(F)n4)cc3)c2N2CCCC2)N2C1=N[C@@H]1CCC[C@@H]12 | – |
| 9.2 | 1100 | 120 | CN1C(=O)c2c(nn(Cc3ccc(-c4cccc(F)n4)cc3)c2N(C)C)N2C1=N[C@@H]1CCC[C@@H]12 | – |
| 133 | 65 | 0.49 | CN1C(=O)c2c(nn(Cc3ccc(S(C)(=O)=O)cc3)c2Nc2ccccc2)N2C1=N[C@@H]1CCC[C@@H]12 | – |
| 1150 | 3100 | 2.7 | CN1C(=O)c2c(nn(Cc3ccc(C4CCCN4C)cc3)c2Nc2ccccc2)N2C1=N[C@@H]1CCC[C@@H]12 (some centres undefined) | – |
| 652 | 1500 | 2.3 | CC(C)[C@@H]1CN2C(=N1)N(C)C(=O)c1c2nn(Cc2ccc(-c3ccccc3)cc2)c1Nc1ccccc1 | – |
| 229 | 5500 | 24 | CN1C(=O)c2c(nn(Cc3ccc(-c4cccc(F)n4)cc3)c2NC2CCCC2)N2C1=N[C@@H]1CCC[C@@H]12 | – |
| 857 | 1200 | 1.4 | CN1C(=O)c2c(nn(Cc3ccc(S(N)(=O)=O)cc3)c2Nc2ccccc2)N2C1=N[C@@H]1CCC[C@@H]12 | AUC(0-t) [2]: 785 ng·h/mL; solubility [4]: > 100 µM; logD [5]: 1.96; AUC(0-t) [7]: 15 ng·h/mL; Kp [9]: 0.02; Cmax [10]: 650 ng/mL; logD [11]: -0.96; Cmax [12]: 16 ng/mL |
| 851 | 6300 | 7.4 | CC(C)CNc1c2c(nn1Cc1ccc(-c3cccc(F)n3)cc1)N1C(=N[C@@H]3CCC[C@@H]31)N(C)C2=O | – |
| 24 | 740 | 31 | CN1C(=O)c2c(nn(Cc3ccc(-c4cccc(F)n4)cc3)c2N(C)c2ccccc2)N2C1=N[C@@H]1CCC[C@@H]12 | – |
| 2.6 | 2000 | 770 | CN1C(=O)c2c(Nc3ccccc3)nn(CC3CCCC3)c2N2C1=N[C@@H]1CCC[C@@H]12 | – |
| 458 | 5500 | 12 | CC(C)Nc1c2c(nn1Cc1ccc(-c3cccc(F)n3)cc1)N1C(=N[C@@H]3CCC[C@@H]31)N(C)C2=O | – |
| 720 | 18000 | 25 | CN1Cc2c(nn(Cc3ccc(-c4ccccn4)cc3)c2Nc2ccccc2)N2C1=N[C@@H]1CCC[C@@H]12 | CLint scaled [8]: 59 mL/min/kg |
| 750 | 1200 | 1.6 | CN1C(=O)c2c(nn(Cc3ccc(C4CCCN4)cc3)c2Nc2ccccc2)N2C1=N[C@@H]1CCC[C@@H]12 (some centres undefined) | – |
| 6.4 | 18000 | 2800 | CN1C(=N)c2c(nn(Cc3ccc(C(F)(F)F)cc3)c2Nc2ccccc2)N2C1=N[C@@H]1CCC[C@@H]12 | CLint scaled [8]: 32 mL/min/kg |
